pKd: −log10 of the molar value. In brackets after ≈: the same amount, converted by molar mass.
What was measured:
[1] = system: Escherichia coli; test: Antibacterial activity against wild-type Escherichia coli ATCC 25922 assessed as inhibition of bacterial growth incubated for 18 hrs; assay type: functional; settings: read-out: MIC100
[2] = system: Klebsiella pneumoniae; test: Antibacterial activity against wild-type Klebsiella pneumoniae ATCC 13883 assessed as inhibition of bacterial growth incubated for 18 hrs; assay type: functional; settings: read-out: MIC100
[3] = Hemolytic activity in human red blood cells at 400 ug/ml incubated for 45 mins by spectrophotometric analysis relative to control; assay type: toxicity, cell-based, Erythrocyte; settings: red blood cells (erythrocytes), at 400 µg/mL, read-out: Activity
[4] = Cytotoxicity against human HepG2 cells incubated for 40 hrs by celltiter-glo luminescent cell viability assay; assay type: toxicity, cell-based
[5] = system: Escherichia coli; test: Antibacterial activity against wild-type Escherichia coli ATCC 25922 assessed as inhibition of bacterial growth by measuring fold increase in MIC incubated for 18 hrs in presence of 50% heat inactivated human serum relative to control; assay type: functional
[6] = system: Escherichia coli; test: Antibacterial activity against wild-type Escherichia coli ATCC 25922 assessed as inhibition of bacterial growth incubated for 18 hrs in presence of 50% heat inactivated human serum; assay type: functional; settings: read-out: MIC100
[7] = system: Escherichia coli; test: Antibacterial activity against Escherichia coli ATCC 25922 harboring hldE knock-out assessed as inhibition of bacterial growth incubated for 18 hrs; assay type: functional; settings: read-out: MIC100
[8] = system: Escherichia coli; test: Antibacterial activity against Escherichia coli ATCC 25922 harboring tolC knock-out assessed as inhibition of bacterial growth incubated for 18 hrs; assay type: functional; settings: read-out: MIC100
[9] = system: Klebsiella pneumoniae; test: Antibacterial activity against wild-type Klebsiella pneumoniae ATCC 13883 assessed as inhibition of bacterial growth incubated for 18 hrs in presence of 50% heat inactivated human serum; assay type: functional; settings: read-out: MIC100
[10] = system: Acinetobacter baumannii; test: Antibacterial activity against wild-type Acinetobacter baumannii ATCC 19606 assessed as inhibition of bacterial growth incubated for 20 hrs; assay type: functional; settings: read-out: MIC100
[11] = system: Pseudomonas aeruginosa; test: Antibacterial activity against wild-type Pseudomonas aeruginosa PAO1 assessed as inhibition of bacterial growth incubated for 24 hrs; assay type: functional; settings: read-out: MIC100
[12] = system: Staphylococcus aureus; test: Antibacterial activity against […] assessed as inhibition of bacterial growth incubated for 18 hrs; assay type: functional; settings: ATCC 29213, read-out: MIC100
[13] = Hydrophobicity of compound assessed as %MeCN at peak elution by RP-HPLC analysis; assay type: physicochemical
[14] = Binding affinity to gram negative bacterial lipid II assessed as dissociation constant by ITC analysis; parameters: species or system Bacteria
[15] = system: Lipopolysaccharide (LPS); test: Binding affinity to Escherichia coli O55:B5 LPS assessed as dissociation constant by ITC analysis; assay type: subcellular

pKd [14]	Structure (SMILES)	MIC [1]	MIC [2]	hemolysis at 0.75 h, 400 ug/ml [3]	IC50 at 40 h [4]	fold change (FC) [5]	MIC [6]	MIC [7]	MIC [8]	MIC [9]	MIC [10]	MIC [11]	MIC [12]	MeCN percentage at peak elution [13]	pKd [15]
–	CC[C@H](N)C(=O)N[C@@H](C(=O)N[C@H](CCN)C(=O)NCC(=O)N[C@H](CO)C(=O)N[C@H](Cc1c[nH]c2ccccc12)C(=O)N[C@@H](CO)C(=O)N[C@@H](CCN)C(=O)N[C@H](CCN)C(=O)N[C@@H](Cc1ccccc1)C(=O)N[C@@H](CCC(=O)O)C(=O)N[C@H](C(=O)N[C@@H](C(=O)N[C@@H](C)C(=O)O)[C@@H](C)CC)C(C)C)C(C)C	2 µg/mL (≈ 1.35 µM)	2 µg/mL (≈ 1.35 µM)	8.8%	95 µg/mL (≈ 64.2 µM)	2	1 µg/mL	1 µg/mL (≈ 0.676 µM)	1 µg/mL (≈ 0.676 µM)	0.5 µg/mL	64 µg/mL (≈ 43.3 µM)	64 µg/mL (≈ 43.3 µM)	> 64 µg/mL	40.7%	–
–	CC[C@H](C)[C@@H](NC(=O)[C@@H](NC(=O)[C@H](CCC(=O)O)NC(=O)[C@H](Cc1ccccc1)NC(=O)[C@@H](CCN)NC(=O)[C@H](CCN)NC(=O)[C@H](CO)NC(=O)[C@@H](Cc1c[nH]c2ccccc12)NC(=O)[C@@H](CO)NC(=O)CNC(=O)[C@@H](CCN)NC(=O)[C@H](NC(=O)[C@@H]1CCCN1)C(C)C)C(C)C)C(=O)N[C@@H](C)C(=O)O	4 µg/mL (≈ 2.68 µM)	4 µg/mL (≈ 2.68 µM)	5.5%	109 µg/mL (≈ 73.1 µM)	2	1 µg/mL	2 µg/mL (≈ 1.34 µM)	2 µg/mL (≈ 1.34 µM)	1 µg/mL	64 µg/mL (≈ 42.9 µM)	> 64 µg/mL	> 64 µg/mL	41.9%	–
6.24	CC[C@@H](C)[C@@H](NC(=O)[C@@H](NC(=O)[C@H](CCC(=O)O)NC(=O)[C@H](Cc1ccccc1)NC(=O)[C@@H](CCN)NC(=O)[C@H](CCN)NC(=O)[C@H](CO)NC(=O)[C@@H](Cc1c[nH]c2ccccc12)NC(=O)[C@@H](CO)NC(=O)CNC(=O)[C@@H](CCN)NC(=O)[C@H](N)C(C)C)C(C)C)C(=O)N[C@@H](C)C(N)=O	16 µg/mL (≈ 11.5 µM)	64 µg/mL (≈ 45.9 µM)	0.4%	> 170 µg/mL	–	–	–	–	–	–	–	–	–	4.94
5.32	CC[C@H](C)[C@H](N)C(=O)N[C@@H](C(=O)N[C@H](CCN)C(=O)NCC(=O)N[C@H](CO)C(=O)N[C@H](Cc1c[nH]c2ccccc12)C(=O)N[C@@H](CO)C(=O)N[C@@H](CCN)C(=O)N[C@H](CCN)C(=O)N[C@@H](Cc1ccccc1)C(=O)N[C@@H](CCC(=O)O)C(=O)N[C@H](C(=O)N[C@@H](C(=O)N[C@@H](C)C(=O)O)[C@@H](C)CC)C(C)C)C(C)C	1 µg/mL (≈ 0.663 µM)	1 µg/mL (≈ 0.663 µM)	56.9%	20 µg/mL (≈ 13.3 µM)	–	–	–	–	–	–	–	–	–	7.06
–	CC[C@H](C)[C@@H](NC(=O)[C@@H](NC(=O)[C@H](CCC(=O)O)NC(=O)[C@H](Cc1ccccc1)NC(=O)[C@@H](CCN)NC(=O)[C@H](CCN)NC(=O)[C@H](CO)NC(=O)[C@@H](Cc1c[nH]c2ccccc12)NC(=O)[C@@H](CO)NC(=O)CNC(=O)[C@@H](CCN)NC(=O)[C@H](NC(=O)[C@@H](N)C(C)C)C(C)C)C(C)C)C(=O)N[C@@H](C)C(=O)O	2 µg/mL (≈ 1.34 µM)	2 µg/mL (≈ 1.34 µM)	14.6%	87 µg/mL (≈ 58.2 µM)	2	1 µg/mL	32 µg/mL (≈ 21.4 µM)	1 µg/mL (≈ 0.669 µM)	0.5 µg/mL	64 µg/mL (≈ 42.8 µM)	64 µg/mL (≈ 42.8 µM)	> 64 µg/mL	41.5%	–
